# Columns and labels:
# Assay type in all cases: functional
# Talaromyces marneffei = assay: Antifungal against Penicillium marneffei
# Candida albicans = assay: Antifungal against Candida albicans
# Scedosporium apiospermum = assay: Antifungal against Scedosporium apiospermum
# [1] = Antifungal against Coccidioides immitis
# Histoplasma capsulatum = assay: Antifungal against Histoplasma capsulatum
# Fusarium solani = assay: Antifungal against Fusarium solani by microdilution technique
# Fusarium sp. = assay: Antifungal against Fusarium sp.
# Candida parapsilosis = assay: Antifungal against Candida parapsilosis; details: Lodderomyces parapsilosis
# Cryptococcus neoformans = assay: Antifungal against Cryptococcus neoformans
# Candida tropicalis = assay: Antifungal against Candida tropicalis
# [2] = Antifungal against Acremonium alabamense; details: Thielavia terrestris
# Aspergillus fumigatus = assay: Antifungal against Aspergillus fumigatus
# Curvularia = assay: Antifungal against Curvularia
# [3] = Antifungal against Paecilomyces lilacinus; details: Purpureocillium lilacinum
# Aspergillus flavus = assay: Antifungal against Aspergillus flavus
# [4] = Antifungal against Scedosporium
# Blastomyces dermatitidis = assay: Antifungal against Blastomycoides dermatitidis
smiles,measurement,setting,value
C[C@@H](c1ncncc1F)[C@](O)(Cn1cncn1)c1ccc(F)cc1F [VORICONAZOLE],MIC90,Talaromyces marneffei,0.03 µg/mL
same,MIC90,Candida albicans,0.06 µg/mL
same,MIC90,Scedosporium apiospermum,0.5 µg/mL
same,MIC90,[1],0.25 µg/mL
same,MIC90,Histoplasma capsulatum,0.25 µg/mL
same,MIC90,Fusarium solani,2 µg/mL
same,MIC90,Fusarium sp.,0.25 µg/mL
same,MIC90,Candida parapsilosis,0.12 µg/mL
same,MIC90,Cryptococcus neoformans,0.06 µg/mL
same,MIC90,Candida tropicalis,> 0.25 µg/mL
same,MIC90,[2],0.25 µg/mL
same,MIC90,Aspergillus fumigatus,0.5 µg/mL
same,MIC90,Curvularia,0.06 µg/mL
same,MIC90,[3],0.5 µg/mL
same,MIC90,Aspergillus flavus,0.5 µg/mL
same,MIC90,[4],0.5 µg/mL
same,MIC90,Blastomyces dermatitidis,0.25 µg/mL

# — ChEMBL document CHEMBL1649523, “Prospective open-label study of the administration of two-percent voriconazole eye drops” (2009)
